Test results from PMC4706618, “Comparison of bactericidal and cytotoxic activities of trichogin analogs” (Data in Brief, 2015).
Converted amounts (≈) assume the structure as drawn. Where two headings read alike, the source gives them in different places. Non-standard residues stand in square brackets, D forms with d. Residues, ends and D or L forms follow the SMILES beside them. *: point of attachment. Leu(ol) = CC(C)C[C@H](N)CO; Octanoyl = CCCCCCCC(=O)*; Aib = CC(C)(N)C(=O)O

Tests used:
[1] = system: S. aureus, ATCC BAA-44 (methicillin-resistant strain); assay type: cell-based, Staphylococcus aureus
Protocol: (§1) E. coli ATCC 25922, the methicillin-resistant strain of S. aureus, ATCC BAA-44, P. aeruginosa ATCC 25668 and S. epidermidis ATCC 700565 was a kind gift of Prof. Elena Reddi (Dept. of Biology, University of Padova, Italy). Cultures were maintained in Luria Bertani (LB) agar. MICs (Minimal inhibitory concentrations) of the peptides were determined using the broth microdilution method. Two-fold serial dilutions of each peptide, from 1 to 64 μM, were prepared in LB and 50 μl per well were arranged in sterile 96-well plates (Falcon). Then, an aliquot of bacterial cell suspension was added to each well, at a final concentration of 5×10^5 CFU/ml.

[2] = system: S. epidermidis ATCC 700565; assay type: cell-based, Staphylococcus epidermidis
Protocol: as §1

P. aeruginosa ATCC 25668 = assay type: cell-based, Pseudomonas aeruginosa
Protocol: as §1

E. coli ATCC 25922 = assay type: cell-based, Escherichia coli
Protocol: as §1

[3] = system: Gram^− and Gram^+ bacteria; assay: Antibacterial activity, all strains taken together; assay type: cell-based; conditions: additional U at position 6 or U1 replaced with L; in words
Protocol: as §1

[4] = system: human cells (lymphocytes, PMNs, monocytes, HL60, HeLa, A431, A549, CCD34Lu); assay: Cytotoxicity on human cells, MTS reduction and LDH release; assay type: cell-based; conditions: 24 h, MTS/LDH EC50, all tested cells; in words
Protocol: (§2) To monitor the possible differential cytocidal effect of trichogin and its analogs on human cells (healthy and cancer cells, non-leukocytes and leukocytes), we incubated the peptides with (i) primary human leukocytes (lymphocytes, PMNs and monocytes), freshly isolated from blood of healthy donors (ii) the monocytes-like HL60 cell line from human myeloid leukemia, and (iii) three tumor-derived non-leukocyte cells lines: HeLa ([…]), A431 (human epidermoid carcinoma) and A549 (human lung carcinoma) and the in vitro stabilized line CCD34Lu (from human normal lung).
(§3) HeLa, A431 and CCD34-Lu cells were maintained in DMEM medium (Gibco), A549 in F12 medium (Gibco) and HL60 in RPMI medium (Gibco), supplemented with 10% FCS (Euroclone) and antibiotics (penicillin and streptomycin, 100 U/ml, Invitrogen) at 37 °C in a humidified atmosphere containing 5% (v/v) CO2; cells were split every 2–3 days. Human monocytes, polymorphonuclear leukocytes (PMNs) and lymphocytes were purified from buffy coats of healthy donors, kindly provided by the Centro Immunotrasfusionale, Hospital of Padova. Briefly, for monocyte purification, peripheral blood mononuclear cells (PBMC) were isolated from buffy coats of healthy donors by density gradient centrifugation on Ficoll-Paque Plus (GE Health care), which density is optimized for the isolation of mononuclear cells. Separate monocyte and T-cell fractions were obtained from PBMCs by Percoll density gradient centrifugation (GE Health care); residual lymphocytes were removed by incubation in 2% fetal calf serum (FCS) RPMI at 37 °C and subsequently washed to eliminate non adherent cells. Unless otherwise specified, cells were kept at 37 °C in a humidified atmosphere containing 5% (v/v) CO2 in RPMI-1640 supplemented with 10% FCS. For PMNs purification, the pellet of cells obtained after the centrifugation on Ficoll gradient was subjected to dextran erythrocytes precipitation; residual erythrocytes were removed by hypotonic lysis in 155 mM NH4Cl, 10 mM KHCO3, and […] Na2EDTA at pH 7.4 and cells were cultured in RPMI medium, supplemented with 10% FCS. For lymphocytes preparation, buffy coats were incubated with 50 μl/ml of Rosette Sep® Human T Cell Enrichment Cocktail (StemCell Technologies). Blood was then centrifuged over a Ficoll gradient and cells were cultured in RPMI medium, supplemented with 10% FCS.
(§4) Twenty-four hours before the experiment, A431, HeLa, A549 and CC34-Lu cells were detached by means of trypsin treatment (Gibco), counted and seeded onto a 96 wells/plate (8×10^3 cells/well, Falcon). After purification, monocytes were seeded onto a 96 wells/plate (2×10^6/well) and left to adhere to the plastic; then cells were immediately treated with stimuli. PMNs and lymphocytes (2×10^6 cells/well) and HL60 cells (40×10^3) were seeded onto cell plates and subsequently treated. Different peptides were diluted in culture medium (from 20 μM to 1 μM) and added to the cells. As a […] control cells were treated with medium without stimuli. Twenty-four hours after treatment, the cell supernatant was collected for subsequent assay (LDH assay) and cells were tested using a CellTiter 96® AQueous One Solution Reagent (Promega). Plates were read with an ELISA reader (Amersham Biosciences) at 492 nm. Data were expressed as % of absorbance value compared to untreated cells (assumed as 100% viable). Alternatively, the EC50 (the concentration of drug where 50% of cells died) was calculated for each peptide and each kind of tested cell.
(§5) 50 μl of the cell supernatant was tested with a CytoTox 96® Non-Radioactive Cytotoxicity Assay kit (Promega). EC50 (the concentration of drug that induced the lysis of 50% of the total cell number) was calculated for each peptide and each kind of tested cell.

[5] = as above; assay type: cell-based; conditions: human, from MTS and LDH EC50 values, compared with trichogin, all cell models, read-out: reduction of cytocidal effect / cell toxicity (% inhibition)
Protocol: as §2, §3, §4, §5

[6] = after 24 h at 37 °C, broth microdilution in LB, 5×10^5 CFU/ml, ±SE, N≥4, peptide dose range 0–64 µM

Row | MIC S. aureus ([1]; ATCC BAA-44, 24 h) | MIC S. epidermis ([2]; ATCC 700565, 24 h) | Structure (SMILES) | MIC P. aeruginosa (P. aeruginosa ATCC 25668; ATCC 25668, 24 h) | MIC E. coli (E. coli ATCC 25922; ATCC 25922, 24 h) | antibacterial activity compared with the K-containing analogs [3] | cytotoxicity compared with trichogin or the corresponding analog [4] | inhibition at 24 h [5] | MIC S. aureus [1, 6] | MIC S. epidermis [2, 6] | MIC P. aeruginosa (P. aeruginosa ATCC 25668; [6]) | MIC E. coli (E. coli ATCC 25922; [6]) | change of anti S. aureus activity compared with trichogin ([1]; MIC after 24 h, in words)
1 | 4.3 ± 1.8 µM (≈ 5.5 µg/mL) | 4 ± 0.9 µM (≈ 5.12 µg/mL) | CCCCCCCC(=O)NC(C)(C)C(=O)N[C@@H](CCCCN)C(=O)N[C@@H](CC(C)C)C(=O)NC(C)(C)C(=O)N[C@@H](CCCCN)C(=O)NCC(=O)N[C@@H](CC(C)C)C(=O)NC(C)(C)C(=O)N[C@@H](CCCCN)C(=O)N[C@H](C(=O)N[C@H](CO)CC(C)C)[C@@H](C)CC [K2K5K9] (Octanoyl-[Aib]KL[Aib]KGL[Aib]KI[Leu(ol)]) | 13.3 ± 4.1 µM (≈ 17 µg/mL) | 14.9 ± 8.6 µM (≈ 19.1 µg/mL) | – | – | – | – | – | – | – | –
2 | 3.3 ± 1.3 µM (≈ 3.99 µg/mL) | 5 ± 2.4 µM (≈ 6.04 µg/mL) | CCCCCCCC(=O)NC(C)(C)C(=O)N[C@@H](CCCCN)C(=O)N[C@@H](CC(C)C)C(=O)NC(C)(C)C(=O)N[C@@H](CCCCN)C(=O)NCC(=O)N[C@@H](CC(C)C)C(=O)NC(C)(C)C(=O)NCC(=O)N[C@H](C(=O)N[C@H](CO)CC(C)C)[C@@H](C)CC [K2K5] (Octanoyl-[Aib]KL[Aib]KGL[Aib]GI[Leu(ol)]) | 16 ± 5 µM (≈ 19.3 µg/mL) | 13.7 ± 3.9 µM (≈ 16.6 µg/mL) | – | – | – | – | – | – | – | –
3 | 2.8 ± 1.1 µM (≈ 3.38 µg/mL) | 3.2 ± 2.6 µM (≈ 3.87 µg/mL) | CCCCCCCC(=O)NC(C)(C)C(=O)N[C@@H](CCCCN)C(=O)N[C@@H](CC(C)C)C(=O)NC(C)(C)C(=O)NCC(=O)N[C@@H](CCCCN)C(=O)N[C@@H](CC(C)C)C(=O)NC(C)(C)C(=O)NCC(=O)N[C@H](C(=O)N[C@H](CO)CC(C)C)[C@@H](C)CC [K2K6] (Octanoyl-[Aib]KL[Aib]GKL[Aib]GI[Leu(ol)]) | 17.6 ± 8.8 µM (≈ 21.3 µg/mL) | 12.6 ± 4.3 µM (≈ 15.2 µg/mL) | – | – | – | – | – | – | – | –
4 | – | – | CCCCCCCC(=O)NC(C)(C)C(=O)NCC(=O)N[C@@H](CC(C)C)C(=O)NC(C)(C)C(=O)N[C@@H](CCCCN)C(=O)NCC(=O)N[C@@H](CC(C)C)C(=O)NC(C)(C)C(=O)NCC(=O)N[C@H](C(=O)N[C@H](CO)CC(C)C)[C@@H](C)CC [K5] (Octanoyl-[Aib]GL[Aib]KGL[Aib]GI[Leu(ol)]) | >64 µM | 8 ± 2 µM (≈ 9.1 µg/mL) | – | – | – | 1 ± 0 µM (≈ 1.14 µg/mL) | 2 ± 0 µM (≈ 2.28 µg/mL) | – | – | –
5 | – | – | CCCCCCCC(=O)N[C@@H](CC(C)C)C(=O)NCC(=O)N[C@@H](CC(C)C)C(=O)NC(C)(C)C(=O)NCC(=O)NCC(=O)N[C@@H](CC(C)C)C(=O)NC(C)(C)C(=O)N[C@@H](CCCCN)C(=O)N[C@H](C(=O)N[C@H](CO)CC(C)C)[C@@H](C)CC [L1K9] (Octanoyl-LGL[Aib]GGL[Aib]KI[Leu(ol)]) | – | – | failed to increase the antibacterial activity | not significantly different | – | 4.7 ± 1.6 µM (≈ 5.48 µg/mL) | 4.6 ± 1.5 µM (≈ 5.36 µg/mL) | >64 µM | 41.1 ± 15.6 µM (≈ 47.9 µg/mL) | –
6 | – | – | CCCCCCCC(=O)N[C@@H](CC(C)C)C(=O)NCC(=O)N[C@@H](CC(C)C)C(=O)N[C@@H](CC(C)C)C(=O)NCC(=O)NCC(=O)N[C@@H](CC(C)C)C(=O)N[C@@H](CC(C)C)C(=O)NCC(=O)N[C@H](C(=O)N[C@H](CO)CC(C)C)[C@@H](C)CC [L1L4L8] (Octanoyl-LGLLGGLLGI[Leu(ol)]) | – | – | – | – | 50 to 70% | – | – | – | – | –
7 | 32 ± 0 µM (≈ 35.9 µg/mL) | >64 µM | CCCCCCCC(=O)N[C@@H](CC(C)C)C(=O)NCC(=O)N[C@@H](CC(C)C)C(=O)NC(C)(C)C(=O)NCC(=O)NCC(=O)N[C@@H](CC(C)C)C(=O)N[C@@H](CC(C)C)C(=O)NCC(=O)N[C@H](C(=O)N[C@H](CO)CC(C)C)[C@@H](C)CC [L1L8] (Octanoyl-LGL[Aib]GGLLGI[Leu(ol)]) | >64 µM | >64 µM | – | – | – | – | – | – | – | –
8 | – | – | CCCCCCCC(=O)NC(C)(C)C(=O)NCC(=O)N[C@@H](CC(C)C)C(=O)N[C@@H](CC(C)C)C(=O)NCC(=O)NCC(=O)N[C@@H](CC(C)C)C(=O)NC(C)(C)C(=O)NCC(=O)N[C@H](C(=O)N[C@H](CO)CC(C)C)[C@@H](C)CC [L4] (Octanoyl-[Aib]GLLGGL[Aib]GI[Leu(ol)]) | – | – | – | – | 50 to 70% | >64 µM | >64 µM | >64 µM | >64 µM | no such increase

Row | Structure (SMILES) | MIC S. aureus ([1]; ATCC BAA-44, 24 h) | MIC S. epidermis ([2]; ATCC 700565, 24 h) | MIC P. aeruginosa (P. aeruginosa ATCC 25668; ATCC 25668, 24 h) | MIC E. coli (E. coli ATCC 25922; ATCC 25922, 24 h) | antibacterial activity compared with the K-containing analogs [3] | cytotoxicity compared with trichogin or the corresponding analog [4] | inhibition at 24 h [5] | MIC S. aureus [1, 6] | MIC S. epidermis [2, 6] | MIC P. aeruginosa (P. aeruginosa ATCC 25668; [6]) | MIC E. coli (E. coli ATCC 25922; [6]) | change of anti S. aureus activity compared with trichogin ([1]; MIC after 24 h, in words)
9 | CCCCCCCC(=O)NC(C)(C)C(=O)N[C@@H](CCCCN)C(=O)N[C@@H](CC(C)C)C(=O)NC(C)(C)C(=O)N[C@@H](CCCCN)C(=O)NC(C)(C)C(=O)N[C@@H](CC(C)C)C(=O)NC(C)(C)C(=O)N[C@@H](CCCCN)C(=O)N[C@H](C(=O)N[C@H](CO)CC(C)C)[C@@H](C)CC [K2K5K9U6] (Octanoyl-[Aib]KL[Aib]K[Aib]L[Aib]KI[Leu(ol)]) | 4 ± 0 µM (≈ 5.23 µg/mL) | 8 ± 0 µM (≈ 10.5 µg/mL) | 8 ± 0 µM (≈ 10.5 µg/mL) | 8 ± 0 µM (≈ 10.5 µg/mL) | failed to increase the antibacterial activity | increased cytotoxicity | – | – | – | – | – | –
10 | CCCCCCCC(=O)NC(C)(C)C(=O)NCC(=O)N[C@@H](CC(C)C)C(=O)NC(C)(C)C(=O)N[C@@H](CCCCN)C(=O)N[C@@H](CCCCN)C(=O)N[C@@H](CC(C)C)C(=O)NC(C)(C)C(=O)NCC(=O)N[C@H](C(=O)N[C@H](CO)CC(C)C)[C@@H](C)CC [K5K6] | 4 ± 0 µM (≈ 4.83 µg/mL) | 4 ± 1 µM (≈ 4.83 µg/mL) | 16 ± 0 µM (≈ 19.3 µg/mL) | 16 ± 0 µM (≈ 19.3 µg/mL) | – | – | 50 to 60% | – | – | – | – | –
11 | CCCCCCCC(=O)N[C@@H](CC(C)C)C(=O)N[C@@H](CCCCN)C(=O)N[C@@H](CC(C)C)C(=O)NC(C)(C)C(=O)NCC(=O)NCC(=O)N[C@@H](CC(C)C)C(=O)NC(C)(C)C(=O)NCC(=O)N[C@H](C(=O)N[C@H](CO)CC(C)C)[C@@H](C)CC [L1K2] (Octanoyl-LKL[Aib]GGL[Aib]GI[Leu(ol)]) | 4.6 ± 1.5 µM (≈ 5.36 µg/mL) | 4.7 ± 1.6 µM (≈ 5.48 µg/mL) | >64 µM | 22.9 ± 8.6 µM (≈ 26.7 µg/mL) | failed to increase the antibacterial activity | not significantly different | – | – | – | – | – | –
